Source: US20040076974A1, “Liver necrosis predictive genes” (priority 2002, published 2004)
Values joined by “and” are separate entries in the source; they are usually repeats but may differ in a detail not shown here. Equal values may be shown once. Read-outs that look alike come from different tables or passages of the source.

Assays:
Sprague Dawley rats = conditions: for Liver Necrosis / Score (histopathology liver necrosis severity score): rat, intraperitoneal; for Liver Necrosis: 72 hours after treatment; for Score (histopathology liver necrosis severity score): 72 hours, 1 = not remarkable, 2 and higher increasing severity
Procedure, shortened: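 Toxicity calls (necrosis present or absent at 72 h) and histopathology scores were correlated with tissue gene expression from Crl:CD Sprague Dawley rats. Animals, usually 3 treated with compound by i.p. route and 3 given vehicle, were killed at 6, 24 or 72 h and tissues frozen immediately in liquid nitrogen.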

[1] = tested on: toxicologically relevant rat genes (rat CT array); conditions: 24 h; dose 200; listed as BRB

## Brc1ccccc1 [bromobenzene]
Sprague Dawley rats; 72 h, compound-dose group, dose BRB 800, BUS 14, CAD 1, CAR 16
  Liver Toxicity Necrosis Classification: yes
Sprague Dawley rats; 72 h, dose 200, animals 2327, 2328, 2329
  Liver Toxicity Necrosis Classification: yes
Sprague Dawley rats; 72 h, dose 800, animal 2337
  Liver Toxicity Necrosis Classification: yes
Sprague Dawley rats; compound-dose group at 72 h, dose 200, yes = necrosis observed
  Liver Toxicity Necrosis Classification: yes
Sprague Dawley rats; compound-dose group at 72 h, dose 800, yes = necrosis observed
  Liver Toxicity Necrosis Classification: yes
Sprague Dawley rats; compound-dose group at 72 h, dose 200
  Liver Toxicity Necrosis Classification: yes
Sprague Dawley rats; compound-dose group at 72 h, dose 800
  Liver Toxicity Necrosis Classification: yes
Sprague Dawley rats; dose 0.2 ml/kg
  Liver Necrosis: Yes
  Score (histopathology liver necrosis severity score): 2
Sprague Dawley rats; dose 0.8 ml/kg
  Liver Necrosis: Yes
  Score (histopathology liver necrosis severity score): 4
[1]
  3-hydroxyisobutyrate dehydrogenase expression (treatment/control): 0.8751 and 1.339 and 0.6927
  14-3-3 zeta expression (treatment/control): 1.437 and 1.592
  25-DX expression (treatment/control): 1.969 and 1.763 and 1.86
  60S ribosomal protein L6 expression (treatment/control): 2.093 and 1.63 and 1.941
  Alpha-2-macroglobulin expression (treatment/control): 0.5548 and 0.5467 and 0.459
  Apolipoprotein CIII expression (treatment/control): 0.8126 and 0.7007
  Argininosuccinate lyase expression (treatment/control): 2.651 and 1.764 and 2.145
  Bax (alpha) expression (treatment/control): 1.536 and 1.414 and 1.327
  Beta-actin expression (treatment/control): 2.486 and 1.816 and 2.608
  Beta-tubulin, class I expression (treatment/control): 2.668 and 1.782 and 2.339
  Carbonyl reductase expression (treatment/control): 1.678 and 1.035 and 1.375
  Cathepsin L, sequence 2 expression (treatment/control): 2.896 and 1.549 and 2.344
  Cofilin expression (treatment/control): 2.923 and 2.064 and 2.935
  DNA polymerase beta expression (treatment/control): 1.369 and 1.206 and 1.307
  Dynamin-1 (D100) expression (treatment/control): 0.8053 and 0.7635 and 0.8226
  Elongation factor-1 alpha expression (treatment/control): 2.054 and 1.728 and 1.8
  Endogenous retroviral sequence, 5′ and 3′ LTR expression (treatment/control): 1.854 and 1.585 and 2.582
  Enolase alpha expression (treatment/control): 2.419 and 1.535 and 1.712
  Epidermal growth factor expression (treatment/control): 0.7593 and 0.7117 and 0.804
  Fas antigen expression (treatment/control): 0.9199 and 0.9142 and 1.12
  Glucose-regulated protein 78 expression (treatment/control): 1.405 and 1.625 and 1.635
  Hepatic lipase expression (treatment/control): 0.569 and 0.6299 and 0.3937
  ID-1 expression (treatment/control): 1.9 and 1.248 and 1.715
  Integrin beta1 expression (treatment/control): 1.457 and 0.9085 and 1.427
  MAP kinase kinase expression (treatment/control): 1.27 and 1.166 and 1.092
  Matrin F/G expression (treatment/control): 0.6546 and 0.8987 and 0.4635
  Matrix metalloproteinase-1 expression (treatment/control): 1.585 and 1.263 and 1.628
  Melanoma-associated antigen ME491 expression (treatment/control): 1.388 and 0.9209 and 1.67
  Monocyte chemotactic protein receptor (CCR2) expression (treatment/control): 1.124 and 0.9935 and 1.064
  Multidrug resistant protein-2 expression (treatment/control): 1.861 and 1.261 and 1.657
  Nucleoside diphosphate kinase beta isoform expression (treatment/control): 1.862 and 1.504 and 1.541
  Organic anion transporter 3 expression (treatment/control): 0.5569 and 0.821 and 0.6551
  Organic cation transporter 3 expression (treatment/control): 1.241 and 0.9547 and 1.365
  Ornithine decarboxylase expression (treatment/control): 2.762 and 1.488 and 2.288
  Phase-1 RCT-12 expression (treatment/control): 1.003
  Phase-1 RCT-15 expression (treatment/control): 2.352 and 2.155
  Phase-1 RCT-36 expression (treatment/control): 0.7233 and 0.7082 and 0.8303
  Phase-1 RCT-37 expression (treatment/control): 0.9672
  Phase-1 RCT-65 expression (treatment/control): 1.706 and 1.856
  Phase-1 RCT-68 expression (treatment/control): 1.972 and 1.887
  Phase-1 RCT-72 expression (treatment/control): 1.442
  Phase-1 RCT-78 expression (treatment/control): 0.6352 and 0.7712 and 0.5322
  Phase-1 RCT-83 expression (treatment/control): 0.6204 and 0.729
  Phase-1 RCT-88 expression (treatment/control): 0.7128 and 0.75 and 0.8397
  Phase-1 RCT-109 expression (treatment/control): 1.895 and 1.651 and 2.226
  Phase-1 RCT-117 expression (treatment/control): 0.6683 and 0.7437
  Phase-1 RCT-123 expression (treatment/control): 0.7152 and 0.6828 and 0.8648
  Phase-1 RCT-137 expression (treatment/control): 1.102 and 0.6023
  Phase-1 RCT-152 expression (treatment/control): 1.957 and 1.542 and 2.109
  Phase-1 RCT-154 expression (treatment/control): 0.9986 and 1.304
  Phase-1 RCT-168 expression (treatment/control): 0.6821 and 0.7986 and 0.5665
  Phase-1 RCT-180 expression (treatment/control): 1.503
  Phase-1 RCT-181 expression (treatment/control): 0.8932 and 0.9997
  Phase-1 RCT-182 expression (treatment/control): 1.301 and 0.688
  Phase-1 RCT-189 expression (treatment/control): 0.5887 and 0.552
  Phase-1 RCT-191 expression (treatment/control): 1.728 and 1.302 and 2.139
